Earlier results on two compounds are cited in patent publication US8476466B2 (priority 2008, dated 2013).

In this series the test system is mice. To be noted: mouse, in vivo.

For `C[As+](C)(C)CC(=O)[O-]` [arsenobetaine], the “50% lethal dose (LD50, in mice)” value is reported as 10000 mg/kg.

Take arsenic acid: the “50% lethal dose (LD50, in mice)” value was 14 to 18 mg/kg.
